In brackets after ≈: the same amount, converted by molar mass.

Experimental findings from ChEMBL document CHEMBL3351318, “Synthesis of novel 4-nitropyrrole-based semicarbazide and thiosemicarbazide hybrids with antimicrobial and anti-tubercular activity” (Bioorg Med Chem Lett, 2014) are described below.

Test [1] relates to Staphylococcus aureus. Nature of the test: Ratio of ciprofloxacin MIC to compound MIC for methicillin-resistant Staphylococcus aureus ATCC 43866 after 48 hrs by broth dilution technique. In kind it is functional. On the technique in general: Dilution methods test growth across graded concentrations, often in twofold steps.
The subject of test [2] is Staphylococcus aureus. Nature of the test: Ratio of ciprofloxacin MIC to compound MIC for methicillin-sensitive Staphylococcus aureus ATCC 35556 after 48 hrs by broth dilution technique. It is filed as functional.
For test [3], the system named is Escherichia coli. Nature of the test: Ratio of ciprofloxacin MIC to compound MIC for Escherichia coli ATCC 25922 after 48 hrs by broth dilution technique. It is filed as functional.
The subject of test [4] is Klebsiella pneumoniae. Nature of the test: Antimicrobial activity against Klebsiella pneumoniae after 48 hrs by broth dilution technique. In kind it is functional.
Test [5] deals with Candida albicans. Nature of the test: Ratio of Amphotericin B MIC to compound MIC for Candida albicans after 48 hrs by broth dilution technique. In kind it is functional.
In test [6] the test system is Staphylococcus aureus. As to the kind of experiment: Antimicrobial activity against methicillin-resistant Staphylococcus aureus ATCC 43866 after 48 hrs by broth dilution technique. It is filed as functional. As to conditions: ATCC 43866, 48 h.
Test [7] concerns Escherichia coli. Nature of the test: Antimicrobial activity against Escherichia coli ATCC 25922 after 48 hrs by broth dilution technique. In kind it is functional. As to conditions: ATCC 25922, 48 h.
Test [8] has as its system Mycobacterium tuberculosis. Nature of the test: Antitubercular activity against Mycobacterium tuberculosis H37Rv after 7 days by Resazurin micro titer assay. In kind it is functional. As to conditions: 168 h. (The colour change of resazurin is a common sign of viable cells or microbes.)
In test [9] the test system is Candida albicans. As to the kind of experiment: Antimicrobial activity against Candida albicans after 48 hrs by agar dilution method. It is filed as functional.
For test [10], the system named is Vero. Nature of the test: Cytotoxicity against African green monkey Vero cells assessed as reduction in cell viability after 72 hrs by MTT assay. In kind it is cell-based. Conditions: Chlorocebus sabaeus. In general terms: Tetrazolium dyes change colour on reduction, which living cells bring about.
Test [11] relates to Staphylococcus aureus. Nature of the test: Antimicrobial activity against methicillin-sensitive Staphylococcus aureus ATCC 35556 after 48 hrs by broth dilution technique. It is filed as functional. As to conditions: ATCC 35556, 48 h.

On to `Cn1cc([N+](=O)[O-])cc1C(=O)NNC(=S)Nc1ccc([N+](=O)[O-])cc1`, for which the Ratio in test [1] is reported as 8; in test [2], 8; in test [3], 4; in test [5], 4. Moreover, the MIC in [4] came out at 1.56 µg/mL (≈ 4.28 µM); in test [6], 0.39 µg/mL (≈ 1.07 µM); in [7], 0.39 µg/mL (≈ 1.07 µM); in test [8], 53.8 µg/mL (≈ 148 µM); in [9], 0.78 µg/mL (≈ 2.14 µM); in test [11], 0.195 µg/mL (≈ 0.535 µM). Further, in test [10], the IC50 turned out to be 395 µM.

Turning to `COc1ccc(NC(=S)NNC(=O)c2cc([N+](=O)[O-])cn2C)cc1`, the Ratio in [1] is on record as 8; in test [2], 8; in test [3] it was 4; in test [5], 4. Moreover, the MIC turned out to be 1.56 µg/mL (≈ 4.47 µM) in [4]; 0.39 µg/mL (≈ 1.12 µM) in test [6]; 0.39 µg/mL (≈ 1.12 µM) in [7]; 19.4 µg/mL (≈ 55.5 µM) in test [8]; 0.78 µg/mL (≈ 2.23 µM) in test [9]; 0.195 µg/mL (≈ 0.558 µM) in test [11]. For the same molecule, the half-maximal inhibitory concentration (IC50) in test [10] came to 184 µM.

As for `Cn1cc([N+](=O)[O-])cc1C(=O)NNC(=S)Nc1ccc(F)cc1`, the Ratio in test [1] is on record as 8; in test [2], 8; in [3], 4; in [5] it was 4. The MIC stood at 1.56 µg/mL (≈ 4.62 µM) in test [4]; 0.39 µg/mL (≈ 1.16 µM) in test [6]; 0.39 µg/mL (≈ 1.16 µM) in [7]; 6.7 µg/mL (≈ 19.9 µM) in test [8]; 0.78 µg/mL (≈ 2.31 µM) in test [9]; 0.195 µg/mL (≈ 0.578 µM) in test [11]. Also, the IC50 in test [10] is 662 µM.

As for `Cn1cc([N+](=O)[O-])cc1C(=O)NNC(=S)Nc1ccccc1F`, the Ratio in [1], in test [2], in test [3] and in test [5] was 4 in each case. Further, the MIC amounted to 1.56 µg/mL (≈ 4.62 µM) in test [4]; 0.78 µg/mL (≈ 2.31 µM) in test [6]; 0.39 µg/mL (≈ 1.16 µM) in test [7]; 3.2 µg/mL (≈ 9.49 µM) in test [8]; 0.78 µg/mL (≈ 2.31 µM) in test [9]; 0.39 µg/mL (≈ 1.16 µM) in test [11]. In addition, the IC50 in test [10] turned out to be 293 µM.

With `Cn1cc([N+](=O)[O-])cc1C(=O)NNC(=S)Nc1ccc(Cl)cc1`, the Ratio came to 8 in test [1], 8 in test [2], 4 in test [3] and 4 in [5]. The MIC is 1.56 µg/mL (≈ 4.41 µM) in [4]; 0.39 µg/mL (≈ 1.1 µM) in [6]; 0.39 µg/mL (≈ 1.1 µM) in test [7]; 16.3 µg/mL (≈ 46.1 µM) in test [8]; 0.78 µg/mL (≈ 2.2 µM) in test [9]; 0.195 µg/mL (≈ 0.551 µM) in test [11]. In test [10], the IC50 was found to be 210 µM.

Regarding `Cn1cc([N+](=O)[O-])cc1C(=O)NNC(=S)NC1CCCCC1`, the Ratio in [1], in test [2], in test [3] and in test [5] was 4 in each case. In addition, the MIC in test [4] was found to be 1.56 µg/mL (≈ 4.79 µM); in test [6], 0.78 µg/mL (≈ 2.4 µM); in test [7], 0.39 µg/mL (≈ 1.2 µM); in [8], 27.5 µg/mL (≈ 84.5 µM); in test [9], 0.78 µg/mL (≈ 2.4 µM); in test [11], 0.39 µg/mL (≈ 1.2 µM). Besides, the IC50 in test [10] was determined as 352 µM.

The MIC is the lowest concentration found to suppress growth. Usually IC50 stands for the midpoint of a concentration-inhibition curve.
